Here are results for 87 molecules from PubChem BioAssay AID1418 (Emory University Molecular Libraries Screening Center, 2008).

Calls of active or inactive are those of the source. No rule for the calls is given here. Where only a bound is given, the exact number is not on record here.

Induced myeloid leukemia cell differentiation protein Mcl-1 (Homo sapiens), sequence (Q07820 whole entry, looked up): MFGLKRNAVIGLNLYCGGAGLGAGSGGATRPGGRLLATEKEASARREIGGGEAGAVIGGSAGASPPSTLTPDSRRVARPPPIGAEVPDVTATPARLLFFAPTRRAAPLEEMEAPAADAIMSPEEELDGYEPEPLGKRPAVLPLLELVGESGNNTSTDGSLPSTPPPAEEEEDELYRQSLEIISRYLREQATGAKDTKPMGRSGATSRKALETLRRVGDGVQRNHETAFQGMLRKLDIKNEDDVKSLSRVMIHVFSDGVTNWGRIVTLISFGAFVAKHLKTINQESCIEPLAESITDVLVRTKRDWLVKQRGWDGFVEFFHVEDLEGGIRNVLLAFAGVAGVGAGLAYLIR

The test concerns the target Induced myeloid leukemia cell differentiation protein Mcl-1 (Homo sapiens) (UniProt Q07820). In words: blockers of Bid binding to Mcl-1 – biochemical, TR-FRET, dose response (AID 1418). To be noted: Mcl-1/Bid peptide binding, TR-FRET (europium/Dy647), 2 hr. For orientation: TR-FRET usually uses a lanthanide donor and a delayed reading to cut background.
A word on the IC50: it is the concentration that inhibits the measured activity by half. For the molecule `COc1cc2nc(N3CCN(C(=O)c4ccco4)CC3)nc(N)c2cc1OC`, the IC50 was > 54 µM (inactive).
`CCOc1ccc(N=C2NC(=O)S/C2=C\c2ccc(O)cc2)cc1`: the IC50 is 0.84 µM.
As to `CCn1c(C)cc(/C=C2\NC(=O)N(Cc3ccc(Cl)cc3)C2=O)c1C`, the IC50 is 9.26 µM.
For `O=C(CCN1CCc2ccccc2C1)Nc1cccc(F)c1`, the IC50 was > 54 µM (inactive).
For the molecule `O=C(O)COc1ccccc1C(Nc1ccccn1)c1cc(Cl)c2cccnc2c1O` (configuration not stated), the IC50 was 5.42 µM.
Regarding `CN1CCN(C(=S)c2cn(Cc3ccccc3F)c3ccccc23)CC1`, the IC50 is > 54 µM (inactive).
Consider `COc1ccc(/C=N/NS(=O)(=O)c2ccccc2)cc1OC(=O)c1ccc(C)cc1`, for which the IC50 is > 54 µM (inactive).
With `CC(C)n1c(SCC(=O)Nc2ccc3c(c2)OCO3)nc2c1c(=O)n(C)c(=O)n2C`, the IC50 was > 54 µM (inactive).
As for `COC(=O)c1cccc(OCC(O)Cn2ccnc2)c1` (configuration not stated), the IC50 was > 54 µM (inactive).
Take `Cc1cc(N/N=C/c2ccc(O)c(C)c2O)nc(-c2ccccc2O)n1`: the IC50 was 9.06 µM.
Under `O=C(O)c1[nH]c2ccccc2c1C=NCc1ccccc1Cl` stands > 54 µM (inactive); under `COc1ccc(-c2ccc(C#N)c(SCC(=O)Nc3sc4c(c3C#N)CCC4)n2)cc1OC`, 0.67 µM.
Take `Cc1ccc(OCC(=O)NCc2ccco2)c([N+](=O)[O-])n1`: the IC50 was > 54 µM (inactive).
Regarding `COCC(O)CSc1nc(C)[nH]c1[N+](=O)[O-]` (configuration not stated), the IC50 was > 54 µM (inactive).
Then `CNc1ccc(Br)cc(C(=O)/C=C/c2cccc(Cl)c2Cl)c1=O`, with 3.46 µM; and `CCN1/C(=C/C=C/c2oc3ccc4ccccc4c3[n+]2CC)Oc2ccc3ccccc3c21`, with 0.58 µM.
Then `COC(=O)c1c(C)[nH]c(C(=O)C(C)[N+]23CCN(CC2)CC3)c1C` (configuration not stated), with 2.85 µM; and `O=C(O)COc1ccc(/C=N/NC(=O)c2ccc(-c3csc(Nc4ccc(Cl)cc4)n3)cc2)cc1`, with 1.43 µM; and `CCCC(=O)Nc1nnc(-c2cccc(OCC)c2)s1`, with > 54 µM (inactive).
As to `O=C(CC(C(=O)O)c1c[nH]c2ccccc12)c1ccccc1` (configuration not stated), the IC50 is > 54 µM (inactive).
Under `COc1ccc(Nc2ncc(C(=O)N3CCN(c4ccc(F)cc4)CC3)c3ccccc23)cc1` stands > 54 µM (inactive); under `Cn1c(=O)c2c(nc(Cc3ccc(N)cc3)n2C)n(C)c1=O`, > 54 µM (inactive).
Then `CCN1C(=O)c2cccc3c(S(=O)(=O)Nc4ccccc4OC)ccc1c23`, with > 54 µM (inactive); and `Cn1c(SCc2nc3ccccc3s2)nnc1-c1ccc2c(c1)OCO2`, with > 54 µM (inactive); and `CN(CCN(C)C(C)(C)C)C(=O)C(c1ccccc1)c1ccccc1`, with > 54 µM (inactive).
Consider `CNC(=O)CN(C1CCCCC1)S(=O)(=O)c1ccc(OC)c(Cl)c1`, for which the IC50 is > 54 µM (inactive).
Then `O=C(Cc1c(Cl)cccc1Cl)OCC(=O)N1CCc2ccccc2C1`, with > 54 µM (inactive); and `CN(C)C(=O)/C(C#N)=C\c1cc(Br)c(Sc2ccc(Cl)cc2)o1`, with > 54 µM (inactive); and `Cc1nc(NC(=O)c2ccccc2)sc1-c1csc(Nc2ccc(C(=O)O)cc2)n1`, with 9.88 µM.
Under `O=C(N/N=C/c1cccc([N+](=O)[O-])c1)c1cc2c(ccc3ccccc32)o1` stands 1.64 µM.
Then `CCN(CCNC(=O)CN1CCN(Cc2ccc(Cl)cc2)C1=O)c1ccccc1`, with > 54 µM (inactive).
With `CCOc1ccc(NC(=O)c2oc3ccccc3c2NC(=O)CC)cc1`, the IC50 was > 54 µM (inactive).
On to `Cc1ccc(-c2nnc(N3CC(C)OC(C)C3)c3ccccc23)cc1` (configuration not stated), for which the IC50 was > 54 µM (inactive).
Then `Cc1ccsc1C(=O)OCC(=O)N1CCOCC1`, with > 54 µM (inactive).
Under `Cc1nc2c(c(=O)n1CCC1=CCCCC1)c1nc3ccccc3nc1n2/N=C/c1ccco1` stands > 54 µM (inactive); under `NNc1nc(-c2ccccc2)cs1`, 0.58 µM.
Then `Cc1occc1C(=O)N/N=C/c1ccc(N(C)C)cc1`, with > 54 µM (inactive).
With `O=C(O)CCCCCN1C(=O)/C(=C\c2cn(-c3ccccc3)nc2-c2cccs2)SC1=S`, the IC50 is 9.29 µM.
Under `Cc1cccc(Cn2c(C)nc3c(N)c(C)c(C)cc32)c1` stands > 54 µM (inactive); under `O=C(Cn1nc(C(F)(F)F)c2c1CCCC2)NCc1ccco1`, > 54 µM (inactive).
Under `COc1cccc(NC(=O)C2c3cc(OC)c(OC)cc3C(=O)N(C)C2c2cccnc2)c1` (configuration not stated) stands > 54 µM (inactive); under `CC(C)(C)c1cc(-c2csc(Nc3ccccc3)[n+]2Cc2ccc(C(=O)O)cc2)cc(C(C)(C)C)c1O`, 0.66 µM; under `Cc1nn(-c2ccccc2C(=O)O)c(=O)c2ccccc12`, > 54 µM (inactive).
Take `NC(N)=NS(=O)(=O)c1ccc(NC(=S)NC(=O)c2sc3ccccc3c2Cl)cc1`: the 50% inhibitory concentration (IC50) is 1.04 µM.
For `CC1CCN(S(=O)(=O)c2cccc(C(=O)Nc3ccccn3)c2)CC1`, the IC50 was > 54 µM (inactive).
Under `CCOc1ccc(N/C(=C(/C(Cl)=C(Cl)Cl)[N+](=O)[O-])n2cncn2)cc1` stands > 54 µM (inactive); under `O=C(O)CCC(=O)NCCC1=c2ccccc2=N/C1=C\c1c(O)n(Cc2ccc(F)cc2)c(=S)[nH]c1=O`, 2.51 µM; under `Cc1csc(CCc2nc(C)cs2)n1`, > 54 µM (inactive).
Then `COc1ccc(Nc2nc(C)c3ccccc3n2)cc1`, with > 54 µM (inactive); and `COc1ccc2[nH]c(=O)c(CNC3CCCCC3)cc2c1`, with > 54 µM (inactive); and `C/C(=N/NC(=O)c1ccccn1)c1ccc(O)cc1`, with > 54 µM (inactive).
Under `CC(CCC(=O)Nc1nncs1)C(=O)O` (configuration not stated) stands > 54 µM (inactive).
`CCN(CC)C(=O)COC(=O)c1cc(-c2ccc(OC)cc2)nc2ccccc12`: the IC50 was > 54 µM (inactive).
Under `CN1CCN(Cc2cccc(Oc3ccc(Cl)cc3)c2)CC1` stands > 54 µM (inactive); under `CCOc1ccc(C(Nc2cccnc2)c2cc(Cl)c3cccnc3c2O)cc1` (configuration not stated), 0.51 µM; under `Cc1cccc(C(=O)Nc2ccnc(-c3cccnc3)n2)c1`, > 54 µM (inactive).
Take `O=C(COC(=O)CC(NC(=O)c1ccccc1Cl)c1ccccc1)Nc1cccc(F)c1` (configuration not stated): the IC50 is > 54 µM (inactive).
Under `Cc1ccc(C(=O)OC2=CC(=O)CC(C)(C)C2)cc1` stands > 54 µM (inactive); under `COCCN1Cc2cccc(C(=O)Nc3cccc(C)c3C)c2C1=O`, > 54 µM (inactive); under `COc1cc2[nH]c(=S)n(N(C(C)=O)C(C)=O)c(=O)c2cc1OC`, > 54 µM (inactive).
Then `COc1ccc(CN2C(=O)c3cccnc3C2Nc2cc(Cl)c(OC)cc2OC)cc1` (configuration not stated), with 0.84 µM.
Then `CCOC(=O)N1CCN(C(=O)CSc2ccc3nnc(CCNC(=O)c4ccc(OC)cc4)n3n2)CC1`, with > 54 µM (inactive); and `CNC(=O)CC1C(=O)N(c2ccc(OC)cc2)C(=S)N1NC(=O)c1cccc(F)c1` (configuration not stated), with > 54 µM (inactive); and `CCOc1ccc(-c2csc3ncn(-c4ccc(OC)cc4)c(=O)c23)cc1`, with > 54 µM (inactive).
With `O=C(O)C[C@@H]1C(=O)O[C@@H]2C(COC(=O)c3cc(O)c(O)c(O)c3)O[C@@H](OC(=O)c3cc(O)c(O)c(O)c3)[C@@H](OC(=O)c3cc(O)c(O)c4c3[C@H]1[C@H](O)C(=O)O4)[C@H]2OC(=O)c1cc(O)c(O)c(O)c1` (some centres not stated), the IC50 was 0.95 µM.
Then `CCOc1ccc(-c2nnc(-c3ccccc3)n2-c2ccccc2)cc1`, with “inactive”; and `COc1cccc(CNc2nc3ccc(C)cc3n3cnnc23)c1`, with > 54 µM (inactive).
Regarding `O=C(Nc1ccc2sccc2c1)c1ccc(Cl)s1`, the IC50 is > 54 µM (inactive).
For `Cc1cccc(OCc2nc(C#N)c(NCc3ccc4c(c3)OCO4)o2)c1`, the IC50 was > 54 µM (inactive).
In the case of `O=C1C(=Cc2cccn2-c2ccc(O)cc2)C(=O)c2ccccc21`, the IC50 was 2.53 µM.
On to `Cc1ccc2[nH]c(=O)c(-c3nc4cc(C)ccn4c3NCc3ccco3)cc2c1`, for which the IC50 was 12.6 µM.
Turning to `O=C(NCCc1ccccc1)C1CCN(S(=O)(=O)c2ccc(-c3nn[nH]n3)cc2)CC1`, the IC50 was > 54 µM (inactive).
For the molecule `Cc1ccc(-c2nc(SCC(=O)Nc3ccccc3OC(F)F)c3c(C)c(C(=O)O)sc3n2)cc1`, the IC50 is > 54 µM (inactive).
Under `COC(=O)/C=C1/SC(=Nc2ccc(C)cc2C)NC1=O` stands > 54 µM (inactive); under `O=c1cc(-c2ccc([N+](=O)[O-])cc2)nc2cc(-c3ccc(Cl)cc3)[nH]n12`, 4.96 µM; under `COc1ccc(-n2c(=O)cc(N3CCOCC3)[nH]c2=O)cc1`, > 54 µM (inactive).
Regarding `COc1cccc(-n2c(SCc3ccccn3)nc3c(c2=O)SCC3)c1`, the IC50 is > 54 µM (inactive).
Under `CC1(c2cccc3ccccc23)NC(=O)N(CC(=O)NC2CCS(=O)(=O)C2)C1=O` (configuration not stated) stands > 54 µM (inactive); under `COc1cccc(Oc2c(C)oc3c(CN4CCCC4)c(O)ccc3c2=O)c1`, > 54 µM (inactive); under `C/C(C/C(C)=C1/SC(=S)NC1=O)=C1\SC(=S)NC1=O`, 1.25 µM.
In the case of `CN(CCOC(=O)C1c2ccccc2Oc2ccccc21)C(C)(C)C`, the IC50 is > 54 µM (inactive).
Under `CN(C)S(=O)(=O)c1cccc(NC(=O)COC(=O)c2cc3ccccc3oc2=O)c1` stands > 54 µM (inactive).
As for `CC(=O)Oc1ccc(C(c2ccc(OC(C)=O)cc2)c2ccccn2)cc1`, the IC50 is > 54 µM (inactive).
With `COc1ccc(/C=C2\C(=O)NC(=S)N2C(=O)c2ccc(F)cc2)cc1`, the IC50 is 8.97 µM.
Under `Cc1ccc(-c2noc(-c3ccccc3C(=O)N3CCN(C)CC3)n2)cc1` stands > 54 µM (inactive); under `O=C(Nc1ccc(-c2nc3cc(Cl)ccc3c(=O)o2)cc1)c1ccco1`, > 54 µM (inactive).
Under `O=C(CSc1nnc(SCc2cccc3ccccc23)s1)N=Nc1c(O)[nH]c2ccccc12` stands 3.51 µM.
